Key:
[1] = test system: CSNK2A2; test: KINOMEscan; details: 50000 nM
Method: KINOMEscan™ selectivity screen
(§1) Briefly, Kinase-tagged T7 phage strains were grown in parallel in an E. coli host derived from the BL21 strain. E. coli were grown to log-phase and infected with T7 phage from a frozen stock and incubated with shaking at 32°C until lysis (90-150 minutes). The kinases were produced in HEK-293 cells and subsequently tagged with DNA for qPCR detection. Streptavidin-coated magnetic beads were treated with biotinylated small molecule ligands to generate affinity resins for kinase
(§2) inhibitor or DMSO control was performed in polypropylene 384-well plates for 1 hr at room temperature. After wash with PBS buffer containing 0.05% Tween 20, the beads were incubated in elution buffer (PBS containing 0.05 % Tween 20 and 0.5 μM non-biotinylated affinity ligand) for 30 minutes at room temperature. The kinase concentration in the eluates was measured by qPCR.

[2] = test system: DMPK2; test: KINOMEscan; details: 50000 nM
Method: KINOMEscan™ selectivity screen
(§3) The assay was perfor med at DiscoveRx Corporation according the methods published previously5. Briefly, Kinase-tagged T7 phage strains were grown in parallel in an E. coli host derived from the BL21 strain. E. coli were grown to log-phase and infected with T7 phage from a frozen stock and incubated with shaking at 32°C until lysis (90-150 minutes). The kinases were produced in HEK-293 cells and subsequently tagged with DNA for qPCR detection. Streptavidin-coated magnetic beads were treated with biotinylated small molecule ligands to generate affinity resins for kinase
as §2

[3] = test system: PKAC-alpha; test: KINOMEscan; details: 50000 nM
Method: KINOMEscan™ selectivity screen
as §1, §2

[4] = test system: PIP5K1A; test: KINOMEscan; details: 50000 nM
[5] = test system: ANKK1; test: KINOMEscan; details: 50000 nM
Method: KINOMEscan™ selectivity screen
as §3, §2

[6] = test system: CDK11; test: KINOMEscan; details: 50000 nM
Method: KINOMEscan™ selectivity screen
as §3, §2

[7] = test system: HIPK4; test: KINOMEscan; details: 50000 nM
Method: KINOMEscan™ selectivity screen
as §3, §2

[8] = test system: LYN; test: KINOMEscan; details: 50000 nM
Method: KINOMEscan™ selectivity screen
as §3, §2

[9] = test system: RPS6KA4(Kin.Dom.2-C-terminal); test: KINOMEscan; details: 50000 nM
Method: KINOMEscan™ selectivity screen
as §3, §2

[10] = test system: ABL1(F317I)-nonphosphorylated; test: KINOMEscan; details: 50000 nM
Method: KINOMEscan™ selectivity screen
as §3, §2

[11] = test system: ULK1; test: KINOMEscan; details: 50000 nM
Method: KINOMEscan™ selectivity screen
as §3, §2

[12] = test system: PRKCQ; test: KINOMEscan; details: 50000 nM
Method: KINOMEscan™ selectivity screen
as §3, §2

[13] = test system: EPHB1; test: KINOMEscan; details: 50000 nM
Method: KINOMEscan™ selectivity screen
as §1, §2

[14] = test system: VPS34; test: KINOMEscan; details: 50000 nM
Method: KINOMEscan™ selectivity screen
as §3, §2

[15] = test system: LNCaP cells; test: MTS cell proliferation assay; assay type: cell-based; details: 1 day, 40% confluent
Method: Neuro 2A cells or NIH/3T3 cells (ATCC) were seeded at various confluency in a 96-well plate in 100 µL DMEM containing 5% FBS or 10% FBS with 1% penicillin streptomucin, respectively, at 37 °C in a 5% CO2 and 95% humidity incubator for 18 hr. To each well 1 µL inhibitor with various concentrations or DMSO was added. The final concentrations of the tested inhibitors were 0, 5, 10, 20, 40 and 80 µM for G7 and LY, and 0, 5, 10, 20, 40 and 80 nM for Torin1, based on their respective IC50 values (~µM for G7 and LY and ~ nM for Torin 1). After 24 hr, 20 µL of CellTiter 96® AQueous One Solution Reagent (Promega) were added. The plate was placed in the incubator for 2 h and absorbance at 490 nm was measured with a Synergy HT Microplate Reader (Bio-Tek).
Fig. S8. Effect of G7 on proliferation of LNCaP cells. Cells that were 40% confluent in RPMI-1640 medium containing 10% FBS were treated with inhibitors for 1 day and subjected to MTS assays. *, µM for both G7 and LY and nM for Torin1. Data represent means ± SEM (n=3). G7, 4-phenylquinolin-2(1H)-one, LY, LY294002.

[16] = test system: RSK3(Kin.Dom.2-C-terminal); test: KINOMEscan; details: 50000 nM
Method: KINOMEscan™ selectivity screen
as §3, §2

[17] = test system: STK35; test: KINOMEscan; details: 50000 nM
Method: KINOMEscan™ selectivity screen
as §1, §2

[18] = test system: MAP4K2; test: KINOMEscan; details: 50000 nM
Method: KINOMEscan™ selectivity screen
as §3, §2

[19] = test system: CAMKK2; test: KINOMEscan; details: 50000 nM
Method: KINOMEscan™ selectivity screen
as §3, §2

[20] = test system: TAOK1; test: KINOMEscan; details: 50000 nM
Method: KINOMEscan™ selectivity screen
as §3, §2

[21] = test system: RPS6KA5(Kin.Dom.1-N-terminal); test: KINOMEscan; details: 50000 nM
Method: KINOMEscan™ selectivity screen
as §3, §2

[22] = test system: PKN2; test: KINOMEscan; details: 50000 nM
Method: KINOMEscan™ selectivity screen
as §3, §2

[23] = test system: RPS6KA5(Kin.Dom.2-C-terminal); test: KINOMEscan; details: 50000 nM
Method: KINOMEscan™ selectivity screen
(§4) Briefly, Kinase-tagged T7 phage strains were grown in parallel in an E. coli host derived from the BL21 strain. E. coli were grown to log-phase and infected with T7 phage from a frozen stock and incubated with shaking at 32°C until lysis (90-150 minutes). The kinases were produced in HEK-293 cells and subsequently tagged with DNA for qPCR detection.
(§5) After wash with PBS buffer containing 0.05% Tween 20, the beads were incubated in elution buffer (PBS containing 0.05 % Tween 20 and 0.5 μM non-biotinylated affinity ligand) for 30 minutes at room temperature. The kinase concentration in the eluates was measured by qPCR.

[24] = test system: ACVR1; test: KINOMEscan; details: 50000 nM
Method: KINOMEscan™ selectivity screen
as §3, §2

[25] = test system: MEK4; test: KINOMEscan; details: 50000 nM
Method: KINOMEscan™ selectivity screen
as §3, §2

[26] = test system: CDC2L2; test: KINOMEscan; details: 50000 nM
Method: KINOMEscan™ selectivity screen
as §1, §2

[27] = test system: MEK5; test: KINOMEscan; details: 50000 nM
Method: KINOMEscan™ selectivity screen
as §3, §2

[28] = test system: PIP5K2C; test: KINOMEscan; details: 50000 nM
Method: KINOMEscan™ selectivity screen
as §1, §2

[29] = test system: DYRK1B; test: KINOMEscan; details: 50000 nM
Method: KINOMEscan™ selectivity screen
(§6) The assay was perfor med at DiscoveRx Corporation according the methods published previously5. […] The kinases were produced in HEK-293 cells and subsequently tagged with DNA for qPCR detection. Streptavidin-coated magnetic beads were treated with biotinylated small molecule ligands to generate affinity resins for kinase
as §2

[30] = test system: TRKA; test: KINOMEscan; details: 50000 nM
Method: KINOMEscan™ selectivity screen
as §3, §2

[31] = test system: PAK2; test: KINOMEscan; details: 50000 nM
Method: KINOMEscan™ selectivity screen
as §3, §2

[32] = test system: MLK3; test: KINOMEscan; details: 50000 nM
Method: KINOMEscan™ selectivity screen
as §3, §2

[33] = test system: NIK; test: KINOMEscan; details: 50000 nM
Method: KINOMEscan™ selectivity screen
as §4, §5

[34] = test system: MUSK; test: KINOMEscan; details: 50000 nM
Method: KINOMEscan™ selectivity screen
The kinases were produced in HEK-293 cells and subsequently tagged with DNA for qPCR detection. Streptavidin-coated magnetic beads were treated with biotinylated small molecule ligands to generate affinity resins for kinase
as §2

[35] = test system: MARK2; test: KINOMEscan; details: 50000 nM
Method: KINOMEscan™ selectivity screen
as §1, §2

[36] = test system: CSNK2A1; test: KINOMEscan; details: 50000 nM
Method: KINOMEscan™ selectivity screen
as §3, §2

[37] = test system: TLK2; test: KINOMEscan; details: 50000 nM
Method: KINOMEscan™ selectivity screen
as §1, §2

[38] = test system: MST2; test: KINOMEscan; details: 50000 nM
Method: KINOMEscan™ selectivity screen
as §6, §2

[39] = test system: PAK6; test: KINOMEscan; details: 50000 nM
Method: KINOMEscan™ selectivity screen
as §1, §2

[40] = test system: PLK3; test: KINOMEscan; details: 50000 nM
Method: KINOMEscan™ selectivity screen
as §1, §2

[41] = test system: FLT3; test: KINOMEscan; details: 50000 nM
Method: KINOMEscan™ selectivity screen
as §3, §2

[42] = test system: TBK1; test: KINOMEscan; details: 50000 nM
Method: KINOMEscan™ selectivity screen
as §3, §2

[43] = test system: CAMK2A; test: KINOMEscan; details: 50000 nM
Method: KINOMEscan™ selectivity screen
as §3, §2

[44] = test system: GRK7; test: KINOMEscan; details: 50000 nM
Method: KINOMEscan™ selectivity screen
as §6, §2

**Q.** Which “Percent Control” value [1] does the source give for `Oc1cc(-c2ccccc2)c2ccccc2n1` [G7, 4-phenylquinolin-2(1H)-one] here?
**A.** 70%

**Q.** And the “Percent Control” value [2]?
**A.** 100%

**Q.** And the “Percent Control” value [3]?
**A.** 87%

**Q.** What about the “Percent Control” value [4] of the same compound?
**A.** 70%

**Q.** What about the “Percent Control” value [5] of the same compound?
**A.** 73%

**Q.** And the “Percent Control” value [6]?
**A.** 91%

**Q.** And the “Percent Control” value [7]?
**A.** 98%

**Q.** What about the “Percent Control” value [8] of the same compound?
**A.** 88%

**Q.** And the “Percent Control” value [9]?
**A.** 92%

**Q.** And the “Percent Control” value [10]?
**A.** 71%

**Q.** And the “Percent Control” value [11]?
**A.** 74%

**Q.** What about the “Percent Control” value [12] of the same compound?
**A.** 81%

**Q.** And the “Percent Control” value [13]?
**A.** 91%

**Q.** And the “Percent Control” value [14]?
**A.** 35%

**Q.** And the “proliferation of LNCaP prostate cancer cells” value [15]?
**A.** inhibited the proliferation

**Q.** And the “Percent Control” value [16]?
**A.** 59%

**Q.** And the “Percent Control” value [17]?
**A.** 90%

**Q.** What about the “Percent Control” value [18] of the same compound?
**A.** 100%

**Q.** And the “Percent Control” value [19]?
**A.** 90%

**Q.** What about the “Percent Control” value [20] of the same compound?
**A.** 95%

**Q.** What about the “Percent Control” value [21] of the same compound?
**A.** 89%

**Q.** What about the “Percent Control” value [22] of the same compound?
**A.** 89%

**Q.** And the “Percent Control” value [23]?
**A.** 93%

**Q.** And the “Percent Control” value [24]?
**A.** 100%

**Q.** And the “Percent Control” value [25]?
**A.** 93%

**Q.** And the “Percent Control” value [26]?
**A.** 88%

**Q.** And the “Percent Control” value [27]?
**A.** 70%

**Q.** What about the “Percent Control” value [28] of the same compound?
**A.** 83%

**Q.** What about the “Percent Control” value [29] of the same compound?
**A.** 76%

**Q.** What about the “Percent Control” value [30] of the same compound?
**A.** 65%

**Q.** And the “Percent Control” value [31]?
**A.** 68%

**Q.** What about the “Percent Control” value [32] of the same compound?
**A.** 88%

**Q.** What about the “Percent Control” value [33] of the same compound?
**A.** 93%

**Q.** What about the “Percent Control” value [34] of the same compound?
**A.** 75%

**Q.** What about the “Percent Control” value [35] of the same compound?
**A.** 65%

**Q.** And the “Percent Control” value [36]?
**A.** 78%

**Q.** What about the “Percent Control” value [37] of the same compound?
**A.** 89%

**Q.** And the “Percent Control” value [38]?
**A.** 76%

**Q.** And the “Percent Control” value [39]?
**A.** 87%

**Q.** And the “Percent Control” value [40]?
**A.** 83%

**Q.** What about the “Percent Control” value [41] of the same compound?
**A.** 13%

**Q.** And the “Percent Control” value [42]?
**A.** 95%

**Q.** And the “Percent Control” value [43]?
**A.** 87%

**Q.** What about the “Percent Control” value [44] of the same compound?
**A.** 52%

— paper PMC5601486, “Identification of 4-phenylquinolin-2(1H)-one as a specific allosteric inhibitor of Akt” (Scientific Reports, 2017)
